In publication PMC7998589, “A Radiobrominated Tyrosine Kinase Inhibitor for EGFR with L858R/T790M Mutations in Lung Carcinoma” (Pharmaceuticals, 2021):
Values belong to the molecule of their own block, whether it stands above or below them.

Tests used:
H1975 (EGFR L858R/T790M) = tested on: H1975 (EGFR L858R/T790M); design: method as in PMID 32599930; settings: WST-8, ref [9]; cited from earlier work
H441 (wild-type EGFR) = tested on: H441 (wild-type EGFR); design: method as in PMID 32599930; settings: WST-8, ref [9]; cited from earlier work
H3255 (EGFR L858R) = tested on: H3255 (EGFR L858R); design: method as in PMID 32599930; settings: WST-8, ref [9]; cited from earlier work
EGFR L858R/T790M = tested on: EGFR L858R/T790M; design: method as in PMID 32599930; settings: ref [9]; cited from earlier work
H1975 and H441 tumors = experiment: Biodistribution of double tracers in tumor-bearing mice; assay type: in vivo, BALB/c nu/nu mice
Protocol: Six weeks old male ddY mice and four weeks old female BALB/c nu/nu mice were purchased from Japan SLC Inc. (Hamamatsu, Japan). Tumor-bearing mice were prepared by subcutaneous injection of cells suspended in 100 μL medium to the female BALB/c nu/nu mice. H1975 cells (5 × 10^6 cells) were implanted in the right shoulder, and H441 cells (3 × 10^6 cells) were implanted in the left shoulder. The tumor reached palpable size after post-inoculation 12 and 9 days for H1975 and H441, respectively.
(§1) One month later, ^125I activity was determined.

[1] = Stability assessment in PBS and murine plasma; assay type: in vitro ADME, mouse; settings: 1 h, 37 °C
Protocol: The stability profile of [^77Br]9 in phosphate-buffered saline (PBS) and murine plasma is presented in Supporting Information (Figure S2). [^77Br]9 was >80% intact in PBS and murine plasma after incubation for 1 h at 37 °C. Its purity decreased to 57% after 24 h of incubation.
To confirm the stability, we measured the purity of radiotracer after incubation in PBS and mouse plasma, respectively, as described previously.

[2] = Biodistribution of double tracers in normal mice; assay type: in vivo; settings: ddY mice
Protocol: as §1

[3] = Determination of partition coefficient (n-octanol / 0.1 M phosphate buffer pH 7.4); assay type: physicochemical
Protocol: To determine the lipophilicity, the partition coefficient of [^77Br]9 was measured as described previously.

[4] = tested on: H1975 (L858R/T790M double mutations EGFR); experiment: Cellular uptake and blocking study, H1975; assay type: cell-based, human
Protocol: H1975 (1 × 10^5 cells/well), H441 (1 × 10^5 cells/well), and H3255 (2 × 10^5 cells/well) NSCLC cells were cultured in 6 well plates. Cells were incubated in medium with 10% FBS and 100 IU/mL penicillin–streptomycin at 37 °C in a humidified atmosphere with 5% CO2 for 24 h. […] The cells were dissolved by a 1.0 M NaOH aqueous solution (0.5 mL × 2). The cell lysate was transferred into a test tube. The radioactivity of ^77Br was measured by an auto well gamma counter at a 100–600 keV energy range. […] The BCA protein assay kit protocol was used to determine the protein concentration.

Compound: C=CC(=O)Nc1cccc(Nc2nc(Nc3ccc(N4CCN(C(C)=O)CC4)cc3OC)ncc2C(F)(F)F)c1 [CO-1686, rociletinib]
IC50 (H1975 (EGFR L858R/T790M)): 0.14 ± 0.05 µM
IC50 (H441 (wild-type EGFR)): 0.26 ± 0.04 µM
IC50 (H3255 (EGFR L858R)): 0.15 ± 0.02 µM
selectivity toward EGFR L858R/T790M compared with wild-type EGFR (EGFR L858R/T790M): high selectivity

Compound: C=CC(=O)Nc1cc(I)cc(Nc2nc(Nc3ccc(N4CCN(C(C)=O)CC4)cc3OC)ncc2C(F)(F)F)c1 [ICO1686]
IC50 (H1975 (EGFR L858R/T790M)): 0.2 ± 0.05 µM
IC50 (H441 (wild-type EGFR)): 1.84 ± 0.44 µM
IC50 (H3255 (EGFR L858R)): 0.5 ± 0.21 µM
selectivity toward EGFR L858R/T790M compared with wild-type EGFR (EGFR L858R/T790M): high selectivity

Biodistribution, Blood (H1975 and H441 tumors; 1 h after i.v. injection): 5.64 % ID/g
Biodistribution, Bone (H1975 and H441 tumors; 1 h after i.v. injection): 1.93 % ID/g
Biodistribution, Brain (H1975 and H441 tumors; 1 h after i.v. injection): 1.49 % ID/g
Biodistribution, H441 tumor (H1975 and H441 tumors; 1 h after i.v. injection): 3.71 % ID/g
Biodistribution, H1975 tumor (H1975 and H441 tumors; 1 h after i.v. injection): 4.51 % ID/g
Biodistribution, Heart (H1975 and H441 tumors; 1 h after i.v. injection): 5.36 % ID/g
Biodistribution, Kidney (H1975 and H441 tumors; 1 h after i.v. injection): 7.75 % ID/g
Biodistribution, Large intestine (H1975 and H441 tumors; 1 h after i.v. injection): 24.33 % ID/g
Biodistribution, Liver (H1975 and H441 tumors; 1 h after i.v. injection): 15.89 % ID/g
Biodistribution, Lung (H1975 and H441 tumors; 1 h after i.v. injection): 11.42 % ID/g
Biodistribution, Muscle (H1975 and H441 tumors; 1 h after i.v. injection): 3.42 % ID/g
Biodistribution, Pancreas (H1975 and H441 tumors; 1 h after i.v. injection): 12.95 % ID/g
Biodistribution, Small intestine (H1975 and H441 tumors; 1 h after i.v. injection): 64.52 % ID/g
Biodistribution, Spleen (H1975 and H441 tumors; 1 h after i.v. injection): 9.19 % ID/g
Biodistribution, Stomach (H1975 and H441 tumors; 1 h after i.v. injection): 1.31 % ID/organ
Biodistribution, Blood (H1975 and H441 tumors; 6 h after i.v. injection): 5.35 % ID/g
Biodistribution, Bone (H1975 and H441 tumors; 6 h after i.v. injection): 1.95 % ID/g
Biodistribution, Brain (H1975 and H441 tumors; 6 h after i.v. injection): 1.39 % ID/g
Biodistribution, H441 tumor (H1975 and H441 tumors; 6 h after i.v. injection): 3.30 % ID/g
Biodistribution, H1975 tumor (H1975 and H441 tumors; 6 h after i.v. injection): 3.48 % ID/g
Biodistribution, Heart (H1975 and H441 tumors; 6 h after i.v. injection): 2.99 % ID/g
Biodistribution, Kidney (H1975 and H441 tumors; 6 h after i.v. injection): 4.91 % ID/g
Biodistribution, Large intestine (H1975 and H441 tumors; 6 h after i.v. injection): 59.40 % ID/g
Biodistribution, Liver (H1975 and H441 tumors; 6 h after i.v. injection): 6.76 % ID/g
Biodistribution, Lung (H1975 and H441 tumors; 6 h after i.v. injection): 6.29 % ID/g
Biodistribution, Muscle (H1975 and H441 tumors; 6 h after i.v. injection): 1.79 % ID/g
Biodistribution, Pancreas (H1975 and H441 tumors; 6 h after i.v. injection): 4.28 % ID/g
Biodistribution, Small intestine (H1975 and H441 tumors; 6 h after i.v. injection): 12.46 % ID/g
Biodistribution, Spleen (H1975 and H441 tumors; 6 h after i.v. injection): 2.04 % ID/g
Biodistribution, Stomach (H1975 and H441 tumors; 6 h after i.v. injection): 1.27 % ID/organ
intact in PBS ([1]; PBS): > 80%
intact in murine plasma ([1]; murine plasma): > 80%
Biodistribution, Blood ([2]; 10 min after i.v. injection): 3.57 % ID/g
Biodistribution, Bone ([2]; 10 min after i.v. injection): 2.76 % ID/g
Biodistribution, Brain ([2]; 10 min after i.v. injection): 0.45 % ID/g
Biodistribution, Heart ([2]; 10 min after i.v. injection): 4.57 % ID/g
Biodistribution, Kidney ([2]; 10 min after i.v. injection): 11.68 % ID/g
Biodistribution, Large intestine ([2]; 10 min after i.v. injection): 2.83 % ID/g
Biodistribution, Liver ([2]; 10 min after i.v. injection): 11.04 % ID/g
Biodistribution, Lung ([2]; 10 min after i.v. injection): 8.72 % ID/g
Biodistribution, Muscle ([2]; 10 min after i.v. injection): 3.18 % ID/g
Biodistribution, Pancreas ([2]; 10 min after i.v. injection): 3.78 % ID/g
Biodistribution, Small intestine ([2]; 10 min after i.v. injection): 25.38 % ID/g
Biodistribution, Spleen ([2]; 10 min after i.v. injection): 5.11 % ID/g
Biodistribution, Stomach ([2]; 10 min after i.v. injection): 6.17 % ID/organ
Biodistribution, Blood ([2]; 1 h after i.v. injection): 3.24 % ID/g
Biodistribution, Bone ([2]; 1 h after i.v. injection): 1.66 % ID/g
Biodistribution, Brain ([2]; 1 h after i.v. injection): 0.95 % ID/g
Biodistribution, Heart ([2]; 1 h after i.v. injection): 2.93 % ID/g
Biodistribution, Kidney ([2]; 1 h after i.v. injection): 4.21 % ID/g
Biodistribution, Large intestine ([2]; 1 h after i.v. injection): 3.18 % ID/g
Biodistribution, Liver ([2]; 1 h after i.v. injection): 3.83 % ID/g
Biodistribution, Lung ([2]; 1 h after i.v. injection): 4.97 % ID/g
Biodistribution, Muscle ([2]; 1 h after i.v. injection): 2.02 % ID/g
Biodistribution, Pancreas ([2]; 1 h after i.v. injection): 3.58 % ID/g
Biodistribution, Small intestine ([2]; 1 h after i.v. injection): 26.49 % ID/g
Biodistribution, Spleen ([2]; 1 h after i.v. injection): 4.83 % ID/g
Biodistribution, Stomach ([2]; 1 h after i.v. injection): 7.00 % ID/organ
Biodistribution, Blood ([2]; 4 h after i.v. injection): 3.19 % ID/g
Biodistribution, Bone ([2]; 4 h after i.v. injection): 1.54 % ID/g
Biodistribution, Brain ([2]; 4 h after i.v. injection): 0.74 % ID/g
Biodistribution, Heart ([2]; 4 h after i.v. injection): 1.87 % ID/g
Biodistribution, Kidney ([2]; 4 h after i.v. injection): 2.81 % ID/g
Biodistribution, Large intestine ([2]; 4 h after i.v. injection): 47.73 % ID/g
Biodistribution, Liver ([2]; 4 h after i.v. injection): 3.72 % ID/g
Biodistribution, Lung ([2]; 4 h after i.v. injection): 5.08 % ID/g
Biodistribution, Muscle ([2]; 4 h after i.v. injection): 1.13 % ID/g
Biodistribution, Pancreas ([2]; 4 h after i.v. injection): 3.04 % ID/g
Biodistribution, Small intestine ([2]; 4 h after i.v. injection): 5.23 % ID/g
Biodistribution, Spleen ([2]; 4 h after i.v. injection): 2.92 % ID/g
Biodistribution, Stomach ([2]; 4 h after i.v. injection): 6.68 % ID/organ
Biodistribution, Blood ([2]; 24 h after i.v. injection): 1.99 % ID/g
Biodistribution, Bone ([2]; 24 h after i.v. injection): 0.89 % ID/g
Biodistribution, Brain ([2]; 24 h after i.v. injection): 0.42 % ID/g
Biodistribution, Heart ([2]; 24 h after i.v. injection): 0.80 % ID/g
Biodistribution, Kidney ([2]; 24 h after i.v. injection): 1.33 % ID/g
Biodistribution, Large intestine ([2]; 24 h after i.v. injection): 0.98 % ID/g
Biodistribution, Liver ([2]; 24 h after i.v. injection): 1.04 % ID/g
Biodistribution, Lung ([2]; 24 h after i.v. injection): 1.62 % ID/g
Biodistribution, Muscle ([2]; 24 h after i.v. injection): 0.47 % ID/g
Biodistribution, Pancreas ([2]; 24 h after i.v. injection): 1.13 % ID/g
Biodistribution, Small intestine ([2]; 24 h after i.v. injection): 1.00 % ID/g
Biodistribution, Spleen ([2]; 24 h after i.v. injection): 1.14 % ID/g
Biodistribution, Stomach ([2]; 24 h after i.v. injection): 2.21 % ID/organ
eliminated in feces ([2]; 24 h postinjection): 35%
logP [3]: 1.72 ± 0.21
Compound: C=CC(=O)Nc1cc([77Br])cc(Nc2nc(Nc3ccc(N4CCN(C(C)=O)CC4)cc3OC)ncc2C(F)(F)F)c1 [[^77Br]9]
accumulation in H1975 versus H3255 and H441 ([4]; 4 h of incubation): significantly higher
reduction of uptake upon pretreatment with CO-1686 ([4]; H1975): ~60%
accumulation of radioactivity with pretreatment with excess CO-1686 ([4]; H1975, 4 h, CO-1686 100 µM blocking): 56.9 % dose/mg protein
accumulation of radioactivity (cell uptake) ([4]; H1975, 4 h incubation): 136.3 % dose/mg protein
effect of gefitinib on uptake ([4]; H1975, gefitinib 100 µM blocking): not significantly reduced
